# Assay results reported in patent US20030022909A1, “Use of methylnaltrexone to treat immune suppression” (University of Chicago, priority 2001, published 2003).
# Like-named read-outs stand apart in the source and are kept apart here.
# How the values were obtained:
# [1] = tested on: blood lymphocyte responses; details: cited from earlier work
# [2] = cited from earlier work
# [3] = white crystalline powder as provided; cited from earlier work
# [4] = tested on: immune system effects of systemic morphine; details: rats, cited from earlier work
# [5] = tested on: natural killer cells; test: Animal study: number of natural killer cells in mice after treatment; format: in vivo; details: ten mice per group
# [6] = microinjection into the third ventricle
structure (smiles),measurement,setting,value
C[N+]1(C)CC[C@]23c4c5ccc(O)c4O[C@H]2[C@@H](O)C=C[C@H]3[C@@H]1C5 [N-methylmorphine],analgesic responses,[1]; [6],maximal analgesic responses were present
same,inhibition of blood lymphocyte responses,[1]; [6],70%
same,plasma corticosterone concentration,[1]; [6],significantly elevated
same,"effect on lymphocyte proliferation, plasma corticosterone concentrations or analgesic responses",[1]; systemic administration,did not effect
"C[N@+]1(CC2CC2)CC[C@]23c4c5ccc(O)c4O[C@H]2C(=O)CC[C@@]3(O)[C@H]1C5 [methylnaltrexone, N-cyclopropylmethylnoroxymorphine-methobromide]",overt side effects,"[2]; intravenous 0.45 mg/kg, volunteers",not associated with any overt side effects
same,half-life,[2]; intravenous compound,less than two
same,solubility in water,[3],freely soluble in water
same,antagonism of immune system effects of systemic morphine injection,[4]; administered intracerebroventricularly,antagonize most of the immune system effects
same,antagonism of immune system effects of systemic morphine injection,[4]; administered subcutaneously,failed to do so
same,number of natural killer cells present after treatment compared to Group 1 (control),[5]; Group 3: methylnaltrexone and morphine,comparable number of natural killer cells to Group 1
CN1CC[C@]23c4c5ccc(O)c4O[C@H]2[C@@H](O)C=C[C@H]3[C@H]1C5 [morphine],number of natural killer cells present after treatment compared to Group 1 (control),[5]; Group 2: placebo and morphine,significant decrease in the number of natural killer cells
same,analgesic responses,[1]; [6],maximal analgesic responses were present
same,inhibition of blood lymphocyte responses,[1]; [6],70%
